Data reported in PMC7681098 (Theranostics, 2021).
Like-named read-outs stand apart in the source and are kept apart here.

Columns and labels:
MOLM13 = assay: Cell proliferation MTT assay; assay type: cell-based; details: Homo sapiens, MOLM-13, 72 h, read-out: Human leukemia cell line IC50 MOLM13
Experimental: (§1) The conditional medium (CM) was prepared from the supernatant of HS-5 cell culture for 5 days under normal culture conditions. At the indicated time point, cell viability was evaluated by MTT assay.

MV4-11 = assay: Cell proliferation MTT assay; assay type: cell-based; details: Homo sapiens, 72 h, read-out: Human leukemia cell line IC50 MV4-11
Experimental: as §1

THP-1 = assay: Cell proliferation MTT assay; assay type: cell-based; details: Homo sapiens, 72 h, wild-type FLT3, read-out: Human leukemia cell line IC50 THP-1
Experimental: as §1

U937 = assay: Cell proliferation MTT assay; assay type: cell-based; details: Homo sapiens, U-937, 72 h, wild-type FLT3, read-out: Human leukemia cell line IC50 U937
Experimental: as §1

[1] = tested on: BaF3 cells with FLT3-D835Y; assay: Cell viability of transformed BaF3 cells; assay type: cell-based, murine; details: Mus musculus, read-out: BaF3 cells with FLT3 mutants IC50 D835Y
Experimental: (§2) Lentivirus packaging and construction of transformed BaF3 cells were performed as described previously. […] Supernatants were collected and used to infect BaF3 cells, and transduced BaF3 cells were selected with puromycin (1 μg/ml) to obtain stably transformed cells.
as §1

[2] = tested on: BaF3 cells with FLT3-ITD/D835Y; assay: Cell viability of transformed BaF3 cells; assay type: cell-based, murine; details: Mus musculus, BaF3; cell viability; read-out: BaF3 cells with FLT3 mutants IC50 ITD-D835Y
Experimental: as §2, §1

[3] = tested on: BaF3 cells with FLT3-ITD/F691L; assay: Cell viability of transformed BaF3 cells; assay type: cell-based, murine; details: Mus musculus, read-out: BaF3 cells with FLT3 mutants IC50 ITD-F691L
Experimental: as §2, §1

[4] = tested on: BaF3 cells with FLT3-ITD/N676D; assay: Cell viability of transformed BaF3 cells; assay type: cell-based, murine; details: Mus musculus, read-out: BaF3 cells with FLT3 mutants IC50 ITD-N676D
Experimental: as §2, §1

[5] = tested on: BaF3 cells with FLT3-ITD/Y842C; assay: Cell viability of transformed BaF3 cells; assay type: cell-based, murine; details: Mus musculus, read-out: BaF3 cells with FLT3 mutants IC50 ITD-Y842C
Experimental: as §2, §1

BaF3 cells with FLT3-ITD = assay: Cell viability of transformed BaF3 cells; assay type: cell-based, murine; details: Mus musculus, read-out: BaF3 cells with FLT3 mutants IC50 ITD
Experimental: as §2, §1

MOLM13 cells = assay: Stroma-protecting model: proliferation in HS-5 conditional medium or normal medium; assay type: cell-based; details: Homo sapiens
Experimental: At the indicated time point, cell viability was evaluated by MTT assay.
(A) Indicated FLT3 mutations were expressed in BaF3 cells respectively. […] The autophosphorylation level of FLT3 was visualized and compared by western blot analysis. […] The CM was prepared from HS-5 cell culture for 4 days under routine culture conditions, clarified by centrifugation, and used immediately. The CM was added to complete medium at a final concentration of 40%. Cell viabilities were measured by MTT assay. Data were shown as mean±SD. […] The FLT3 phosphorylation levels of FLT3, STAT5 and ERK 1/2 were determined by Western blot.
On the other hand, the bone marrow stroma-protecting environment containing a number of cytokines (e.g. FLT3 ligand, stromal derived factor-1, etc) could also decrease the drug efficacy of FLT3 inhibitors by activating FLT3 or its downstream effectors and building cross-talk between leukemic blasts and bone marrow microenvironment, [35].

MV4-11 cells = assay: Bone marrow engrafted model, survival; assay type: in vivo, NOD-SCID mice; details: MV4-11 bone marrow engraftment; LT-171-861 10 mg/kg every other day, sorafenib orally every day
Experimental: Six-week-old female NOD-SCID mice were treated with sub-lethal dose radiation (1.8 Gy) before intravenous injection of MV4-11 cells (5×10^6) or MOLM13 cells (5×10^6).
Data were shown as mean±SD. […] Data were shown as mean±SD. (C) An engrafted tumor model was used to evaluate in vivo antitumor activity. The NOD/SCID mice were intravenously inoculated with MV4-11 cells. […] Log-rank testing was used to compare survival curves among treatment groups. […] (D) Apoptotic assays in engraft model were evaluated by TUNEL assay and cell proliferative activity was measured by Ki67 assay. Images were acquired at ×40 magnification. (E) BALB/c nude mice were subcutaneously inoculated with MV4-11 cells (5×10^6) and bodyweight of each mouse was recorded every other day. (F) Representative photo of tumors from BALB/c nude mice which were inoculated with MV4-11 cells. (G) BALB/c nude mice were subcutaneously inoculated with BaF3 cells bearing FLT3-ITD-N676D (n=6) and FLT3-ITD-F691L (n=6) respectively. […] (H) BALB/c mice were intravenously inoculated with cells used in (G). […] Log-rank testing was used to compare survival curves among treatment groups. […] (I) Representative photos of spleens dissected from mice in (H) inoculated with BaF3 cells bearing FLT-3-ITD-F691L.
Mice that received vehicle treatment died within 30 days after intravenous injection of MV4-11 cells.

ERK1 = biological target: T1, ERK1 (Homo sapiens, UniProt P27361); assay: Kinase inhibition assay (Reaction Biology); assay type: biochemical; details: 10 μM ATP, 10-dose IC50 mode
T1 construct: purchased Reaction Biology Corporation (PA, USA)
T1 sequence (P27361 whole entry): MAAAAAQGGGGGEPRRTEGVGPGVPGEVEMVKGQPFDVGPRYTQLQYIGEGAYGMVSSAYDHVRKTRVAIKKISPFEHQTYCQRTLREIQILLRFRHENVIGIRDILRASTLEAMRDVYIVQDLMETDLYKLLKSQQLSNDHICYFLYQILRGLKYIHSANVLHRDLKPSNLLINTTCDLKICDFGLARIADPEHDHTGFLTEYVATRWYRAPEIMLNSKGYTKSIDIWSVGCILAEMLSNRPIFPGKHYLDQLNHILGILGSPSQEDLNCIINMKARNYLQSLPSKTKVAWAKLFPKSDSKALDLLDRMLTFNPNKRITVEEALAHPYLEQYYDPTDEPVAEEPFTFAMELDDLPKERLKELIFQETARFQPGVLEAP

Row | IC50 (ERK1) [nM] | Compound | IC50 (MOLM13) [nM] | IC50 (MV4-11) [nM] | IC50 (THP-1) [nM] | IC50 (U937) [nM] | IC50 [1] [nM] | IC50 [2] [nM] | IC50 [3] [nM] | IC50 [4] [nM] | IC50 [5] [nM] | IC50 (BaF3 cells with FLT3-ITD) [nM] | IC50 (MOLM13 cells; MOLM-13, HS-5 conditional medium (CM) 40%, 72 h, MTT, read-out: IC50 proliferation of MOLM13 cells in CM) [nM] | IC50 (MOLM13 cells; MOLM-13, normal medium (NM), 72 h, MTT, read-out: IC50 proliferation of MOLM13 cells in NM) [nM] | survival versus vehicle (MV4-11 cells) | IC50 (MOLM13 cells; MOLM-13, 72 h, read-out: IC50 proliferation of MOLM13 cells in CM) [nM] | IC50 (MOLM13 cells; MOLM-13, 72 h, read-out: IC50 proliferation of MOLM13 cells in NM) [nM]
1 |  | CNC(=O)c1cc(Oc2ccc(NC(=O)Nc3ccc(Cl)c(C(F)(F)F)c3)cc2)ccn1 [Sorafenib, reference compound] | 5.3 | 3.2 | > 1000 | > 1000 | 235 | 878 | 45.2 | 103 | 346 | 13.2 | 1460 | 11.3 | increased survival rates |  | 
2 |  | CC(C)(C)c1cc(NC(=O)Nc2ccc(-c3cn4c(n3)sc3cc(OCCN5CCOCC5)ccc34)cc2)no1 [AC220] | 1.2 | 1.5 | > 1000 | > 1000 |  |  |  |  |  |  |  |  |  | 116 | 14.1
3 | 4.9 | O=C(Nc1ccc2[nH]nc(-c3ccncc3)c2c1)[C@@H]1CCN(CC(=O)N2CCN(c3ccc(-c4ncccn4)cc3)CC2)C1 [SCH772984, reference compound] |  |  |  |  |  |  |  |  |  |  |  |  |  |  | 
